Experimental data as given in patent EP2022493A1, “Composition comprising at least one optically active phthalamide derivative for controlling animal parasites” (Bayer CropScience AG, priority 2007, dated 2009).

What was measured:
Boophilus microplus = Boophilus microplus - test (injection into adult ticks); assay type: in vivo; conditions: application rate of 20 µg/animal; injected into the abdomen of adult ticks; seven days
Description: Boophilus microplus - test Solvent: dimethylsulfoxide To produce a suitable preparation of active compound, 1 part by weight of active compound is mixed with the stated amount of solvent, and the concentrate is diluted with containing solvent to the desired concentration. Adult ticks (Boophilus microplus) are treated by injected with compound solution of the desired concentration into the abdomen. Ticks are transferred into replica plates and incubated in a climate chamber for seven days. Eggs which are not clearly fertile or infertile are further incubated for another 35 days until larvae hatch from the untreated controls. After the specified period of time, the laying of fertile eggs in % is determined. 100 % means that all eggs have been fertile; 0 % means that none of the eggs have been fertile.

Lucilia cuprina larvae = assay: Lucilia cuprina - test (larvae); assay type: in vivo; conditions: in Ovis aries, read-out: activity (mortality in %)
Description: (§1) Solvent: dimethyl sulfoxide
(§2) To produce a suitable preparation of active compound, 10 mg of active compound are dissolved in 0.5 ml solvent, and the concentrate is diluted with water to the desired concentration.
Approximately 20 -30 (Lucilia cuprina larvae) are transferred into a test tube containing 1cm^3 of minced horse meat and 0.5 ml aqueous dilution of test compound.
After the specified period of time, mortality in % is determined. 100 % means that all the larvae have been killed; 0 % means that none of the larvae have been killed.

[1] = Determination of the logP values by HPLC on reversed-phase column (C 18); assay type: physicochemical
Description: Determination of the logP values:
The lambda max values were determined in the maxima of the chromatographic signals using the UV spectra from 190 nm to 400 nm.

Musca domestica = Musca domestica - test; assay type: in vivo; conditions: application rate of 100ppm, adults
Description: as §1, §2
Prior to the assay, a piece or kitchen sponge is soaked with a mixture of sugar and compound solution and placed into a container. 10 adults (Musca domestica) are placed into the container and closed with a perforated lid.
After the specified period of time, mortality in % is determined. 100 % means that all the flies have been killed; 0 % means that none of the flies have been killed.

[2] = 0.1% aqueous phosphoric acid/acetonitrile, method [a]: 0.1% aqueous phosphoric acid and acetonitrile at pH 2.3, linear gradient from 10 to 95 % (v/v) acetonitrile, HPLC reversed-phase C 18, 40 °C
[3] = 0.001 m aqueous nh4hco3/acetonitrile, HPLC, reversed-phase C 18, 40 °C, [c] 0.001 molar aqueous NH4HCO3 solution and acetonitrile at pH 7.8, linear gradient from 10 % to 95 % acetonitrile (v/v)
[4] = 0.1% aqueous phosphoric acid/acetonitrile, HPLC, reversed-phase C 18, 40 °C, [a] 0.1% aqueous phosphoric acid and acetonitrile at pH 2.3, linear gradient from 10 to 95 % (v/v) acetonitrile

| Compound | activity (laying of fertile eggs in %) (Boophilus microplus) [%] | mortality at 100 ppm (Lucilia cuprina larvae) [%] | chromatographic logP ([1]; 0.001 m aqueous nh4hco3/acetonitrile, method [c]: 0.001 molar aqueous NH4HCO3 solution and acetonitrile at pH 7.8, linear gradient from 10 % to 95 % acetonitrile (v/v), HPLC reversed-phase C 18, 40 °C) | chromatographic logP [1, 2] | mortality at 100 ppm (Musca domestica) [%] | chromatographic logP [1, 3] | chromatographic logP [1, 4] | chromatographic logP ([1]; 0.1% aqueous formic acid/acetonitrile, HPLC, reversed-phase C 18, 40 °C, [b] 0.1% aqueous formic acid and acetonitrile at pH 2.7, linear gradient from 10 % to 95 % (v/v) acetonitrile) |
| --- | --- | --- | --- | --- | --- | --- | --- | --- |
| Cc1cc(C(C(F)(F)F)C(F)(F)F)c(F)cc1NC(=O)c1cccc(Br)c1C(=O)N[C@@H](C)C[S+](C)[O-] (some centres unmarked) [Compound 422] | ≥ 80 | ≥ 80 | 2.51 | 2.58 | – | – | – | – |
| CCS(=O)(=O)C[C@H](C)NC(=O)c1c(I)cccc1C(=O)Nc1ccc(C(C(F)(F)F)C(F)(F)F)cc1C [Compound 23] | – | ≥ 80 | – | – | ≥ 80 | – | – | – |
| C[C@@H](CS(C)(=O)=O)NC(=O)c1c(I)cccc1C(=O)Nc1ccc(C(F)(C(F)F)C(F)(F)F)cc1F (some centres unmarked) [Compound 283] | – | ≥ 80 | – | – | ≥ 80 | 2.76 | 2.72 | – |
| Cc1c(NC(=O)c2cccc(I)c2C(=O)N[C@@H](C)CS(C)(=O)=O)ccc(C(F)(F)C(F)(F)F)c1F [Compound 162] | – | ≥ 80 | – | 2.97 | ≥ 80 | – | – | – |
| CSC[C@H](C)NC(=O)c1c(Cl)cccc1C(=O)Nc1ccc(C(F)(C(F)(F)F)C(F)(F)F)cc1C [Compound 390] | ≥ 80 | ≥ 80 | – | – | ≥ 80 | – | – | – |
| CSC[C@H](C)NC(=O)c1c(I)cccc1C(=O)Nc1ccc(C(F)(F)C(F)(F)F)c(F)c1C [Compound 146] | ≥ 80 | ≥ 80 | – | 4.04 | – | – | – | – |
| C[C@@H](CS(C)(=O)=O)NC(=O)c1c(I)cccc1C(=O)Nc1ccc(C(C(F)F)C(F)(F)F)cc1Br (some centres unmarked) [Compound 275] | – | ≥ 80 | – | – | ≥ 80 | 2.76 | 2.71 | – |
| CCS(=O)(=O)C[C@H](C)NC(=O)c1c(I)cccc1C(=O)Nc1ccc(C(F)(F)C(F)(F)F)c(Cl)c1C [Compound 145] | – | ≥ 80 | – | – | – | – | – | – |
| CCS(=O)(=O)C[C@H](C)NC(=O)c1c(Cl)cccc1C(=O)Nc1ccc(C(F)(F)C(F)(F)F)c(Cl)c1C [Compound 347] | ≥ 80 | ≥ 80 | – | – | – | – | 3.14 | – |
| CSC[C@H](C)NC(=O)c1c(I)cccc1C(=O)Nc1ccc(C(C(F)(F)F)C(F)(F)F)cc1C [Compound 24] | ≥ 80 | ≥ 80 | – | – | ≥ 80 | – | – | – |
| Cc1c(NC(=O)c2cccc(I)c2C(=O)N[C@@H](C)CS(C)(=O)=O)ccc(C(F)(C(F)(F)F)C(F)(F)F)c1F [Compound 178] | – | ≥ 80 | – | 3.27 | ≥ 80 | – | – | – |
| CCSC[C@H](C)NC(=O)c1c(I)cccc1C(=O)Nc1ccc(C(F)(C(F)(F)F)C(F)(F)F)c(F)c1C [Compound 105] | ≥ 80 | ≥ 80 | – | 4.71 | – | – | – | – |
| CCSC[C@H](C)NC(=O)c1c(I)cccc1C(=O)Nc1ccc(C(C(F)F)C(F)(F)F)cc1F (some centres unmarked) [Compound 219] | ≥ 80 | – | – | – | ≥ 80 | 3.57 | 3.57 | – |
| CCS(=O)(=O)C[C@H](C)NC(=O)c1c(I)cccc1C(=O)Nc1ccc(C(F)(C(F)(F)F)C(F)(F)F)c(F)c1C [Compound 130] | – | ≥ 80 | – | 3.47 | ≥ 80 | – | – | – |
| C[C@@H](CS(C)(=O)=O)NC(=O)c1c(I)cccc1C(=O)Nc1ccc(C(C(F)F)C(F)(F)F)cc1Cl (some centres unmarked) [Compound 259] | – | ≥ 80 | – | – | ≥ 80 | 2.72 | 2.69 | – |
| CSC[C@H](C)NC(=O)c1c(Cl)cccc1C(=O)Nc1ccc(C(F)(F)C(F)(F)F)c(F)c1C [Compound 355] | ≥ 80 | ≥ 80 | – | – | – | – | – | 3.94 |
| Cc1cc(C(C(F)(F)F)C(F)(F)F)ccc1NC(=O)c1cccc(I)c1C(=O)N[C@@H](C)C[S+](C)[O-] (some centres unmarked) [Compound 56] | ≥ 80 | ≥ 80 | – | – | ≥ 80 | – | – | – |
| CSC[C@H](C)NC(=O)c1c(I)cccc1C(=O)Nc1ccc(C(F)(F)C(F)(F)F)c(Cl)c1C [Compound 170] | ≥ 80 | ≥ 80 | – | 4.2 | – | – | – | – |
